Literature values in patent publication US12629339B2, “Lithium salt extended-release formulations; methods of making; and methods of use thereof” (Almatica Pharma LLC, priority 2023, dated 2026).

Conditions: serum lithium level

[Li] [lithium]
Toxic concentration of lithium: ≥ 1.5 mEq/L
